Assay results reported in patent US7928119B2, “Use of EP4 receptor ligands in the treatment of IL-6 involved diseases” (Pfizer Inc., priority 2002, dated 2011).
“And” between values parts separate entries of the source, which are not always exact repeats. Identical values can stand only once.

Key:
human whole blood (HWB) [1] = assay: Effects of EP agonists on the production of IL-6 in HWB; type: cell-based; conditions: agonist 1-10 μM (up to 10 μM), 24 hrs
Description: Peripheral human whole blood (HWB) was collected from healthy volunteers into the sample tubes (nine volumes into one volume of 3.8% trisodium citrate, Becton Dickinson), and chilled at 4° C. until the experiment. HWB (50 μl) was put into the assay plate and mixed for 10 sec with plate mixer (intensity level at 4, TAITAC, Micromixer). The samples were placed for 3 min at room temperature, then 45 μl of AIM medium was added and mixed for 10 sec with plate mixer (intensity level at 4). The samples were placed for 3 min at room temperature. The mixture (100 μl) of 10-10000 nM each EP agonist and 100 μM argatroban were added to the samples, and mixed for 10 sec with plate mixer (intensity level at 4). The samples were incubated in 5% CO2 at 37° C. for 24 hrs. Then, the samples were stirred and centrifuged at 200 g for 10 minutes. The supernatants were collected, and the IL-6 concentration was measured by ELISA-Kit (Cyto screen).
The application of 1-10 μM Butaprost, an EP2 agonist, enhanced IL-6 production (FIG. 5). […] Effects of EP2 (butaprost), EP4 (11-deoxy-PGE1) and EP1/EP3 (sulprostone) agonists on the production of IL-6 in HWB was measured respectively. Each agonist was added to the HWB, and incubated in 5% CO2 at 37° C. for 24 hrs. The results represented the mean±s.d. of the results in triplicate. […]

human whole blood (HWB) [2] = assay: PGE2-induced IL-6 production assay using human whole blood (HWB); type: cell-based; conditions: 100 μM, 24 hrs incubation
Description: Peripheral human whole blood (HWB) was collected from healthy volunteers into the sample tubes (nine volumes into one volume of 3.8% trisodium citrate, Becton Dickinson), and chilled at 4° C. until the experiment. HWB (50 μl) was put into the assay plate and mixed for 10 sec with plate mixer (intensity level at 4, TAITAC, Micromixer). The samples were placed for 3 min at room temperature, then 45 μl of AIM medium was added and mixed for 10 sec with plate mixer (intensity level at 4). The samples were placed for 3 min at room temperature. The mixture (100 μl) of 10-10000 nM PGE2 and 100 μM argatroban were added to the samples, and mixed for 10 seconds with plate mixer (intensity level at 4). The samples were incubated in 5% CO2 at 37° C. for 24 hrs. Then, the samples were stirred and centrifuged at 200 g for 10 minutes. The supernatants were collected, and the IL-6 concentration was measured by ELISA-Kit (Cyto screen).
In this experiment, we have established PGE2-induced IL-6 production assay using human whole blood (HWB). To prevent fibrin synthesis, argatroban, a thrombin inhibitor, was added to the culture samples. […] Diluted human whole blood samples were stimulated with 10-10,000 nM of PGE2 and incubated at 37° C. for 24 hrs. The IL-6 concentration in the supernatant was determined by ELISA. […]

fibrin formation = assay: Fibrin formation in HWB culture samples during 24 hrs incubation; set-up: species or system human; conditions: 100 μM
Description: In this experiment, we have established PGE2-induced IL-6 production assay using human whole blood (HWB). To prevent fibrin synthesis, argatroban, a thrombin inhibitor, was added to the culture samples. […] Diluted human whole blood samples were stimulated with 10-10,000 nM of PGE2 and incubated at 37° C. for 24 hrs. The IL-6 concentration in the supernatant was determined by ELISA. The results represented the mean±s.d. from one representative experiment performed in triplicate.

human PBMC = assay: PGE2 stimulation of IL-6 secretion in ConA-treated human PBMC and its inhibition by EP4 antagonists (ELISA); type: cell-based
Description: PBMC were stimulated with 5 μg/ml of Con A alone or with 10 nM to 1000 nM PGE2 at 37° C. for 24 hr. The secreted IL-6 in culture medium was measured by ELISA. Data are expressed as mean±s.d. (FIG. 1)
The PGE2 concentration-dependence of stimulation of IL-6 secretion by human PBMC without and with ConA-stimulation, and the inhibitory effect of Compound A. PBMC were stimulated with 5 μg/ml of Concanavalin A alone or with 10 nM to 1000 nM PGE2 at 37° C. in 5% CO2 for 24 hr. To see the effect of Compound A, 50 μM of Compound A was added simultaneously with ConA and PGE2, and incubated for 24 hr. Data in parenthesis are expressed % control of mitocondorial dehydrogenase activity. (FIG. 2)
Compound A and Compound B inhibited the IL-6 secretion in ConA-treated PBMC. (FIG. 3.) PBMC were incubated with 5 μg/ml of Con A, 100 nM PGE2 and various doses of EP4 antagonists at 37° C. for 24 hr. The secreted IL-6 in culture medium was measured by ELISA. Data are expressed as mean±s.d.

PGE2-stimulated HWB = assay: Effects of EP4 antagonist on the production of IL-6 in PGE2-stimulated HWB; type: cell-based, human; conditions: Compound B 320-40,000 nM, 24 hrs
Description: Peripheral human whole blood (HWB) was collected from healthy volunteers into the sampling tubes (nine volumes into one volume of 3.8% trisodium citrate, Becton Dickinson), and chilled at 4° C. until the experiment.
Compound B (5 μl) or vehicle (AIM medium containing 0.2% DMSO) was added into 96-well culture plates. HWB (50 μl) was put into the assay plate and mixed for 10 sec with plate mixer (intensity level at 4, TAITAC, Micromixer). The samples were placed for 3 min at room temperature, and then 45 μl of AIM medium was added and mixed for 10 sec with plate mixer (intensity level at 4). The samples were placed for 3 min at room temperature. The mixture (100 μl) of 100 nM PGE2 and 100 μM argatroban was added to the samples, and mixed for 10 sec with plate mixer (intensity level at 4). The samples were incubated in 5% CO2 at 37° C. for 24 hrs. Then, the samples were stirred and centrifuged at 200 g for 10 minutes. The supernatants were collected, and the IL-6 concentration was measured by ELISA-Kit (Cyto screen).
Compound B inhibited the PGE2-stimulated IL-6 production in a dose dependent manner (FIG. 6). Diluted human whole blood samples containing Compound B were stimulated with 10-10,000 nM of PGE2 and incubated at 37° C. for 24 hrs. The IL-6 concentration in the supernatant was determined by ELISA. […]

[3] = test system: human leukemic T cells of the HSB.2 cultured line; conditions: HSB.2 cells coexpressing EP2, EP3 and EP4; cited from earlier work
[4] = test system: ConA and PGE2 co-stimulated human whole blood; assay: IL-6 production in ConA and PGE2 co-stimulated human whole blood; type: cell-based
Description: Compound B (50 μl), ConA and PGE2 (50 μl, 1:1) were diluted with the AIM medium (Gibco) in the appropriate concentrations (conc.) and were placed onto 96-well culture plates (assay plates). Peripheral blood was collected from healthy volunteers (nine volumes into one volume of 3.8% trisodium citrate, Becton Dickinson). Human whole-blood samples were diluted with the same volume of AIM medium, and 100 μl of diluted-blood samples were place onto the assay plates. The final DMSO conc. of assay mixtures was 0.25%. The assay mixtures were incubated in 5% CO2 at 37° C. for 24 hrs. Then, the assay mixtures were stirred and centrifuged at 200 g for 10 minutes. The supernatants were collected, and the IL-6 concentration was measured by ELISA-Kit (Cyto screen).
PGE2 enhanced IL-6 production dose dependently from 10 to 1000 nM (FIG. 7). When blood samples were stimulated with 10, 100 and 1000 nM of PGE2, the IL-6 concentrations in the assay mixtures were 1.8˜10.8 ng/ml, 4˜20 ng/ml and 5.8˜23 ng/ml, respectively. The concentrations of PGE2 (10-1000 nM) gave sufficient IL-6 production to determine the IC50s of the EP4 antagonists. […] Diluted human whole-blood samples were stimulated with 5 μg/ml of ConA and three different concentrations of PGE2 (10-1000 nM). The IL-6 concentration in the supernatant was determined after 24 hrs of incubation at 37° C. Diluted human whole blood was co-stimulated with 5 μg/ml of ConA and 100 nM of PGE2 and incubated at 37° C. for 24 hrs. The IL-6 concentration in the supernatant was determined by ELISA.

human whole blood cells = assay: IL-6 production in human whole blood cells; type: cell-based; conditions: application of only PGE2 to human whole blood cells
From the text: One embodiment of this invention is a more specific therapeutic targeting system to control IL-6 production. In addition, this system is a useful method for the detection of molecular target of atherosclerosis and IL-6 related disorders.

CCCCC[C@H](O)/C=C/[C@H]1CCC(=O)[C@@H]1CCCCCCC(=O)O [11-deoxy-PGE1]
IL-6 production (human whole blood (HWB) [1]): enhanced

CC1CNc2c(cccc2S(=O)(=O)N[C@@H](CCCNC(=N)N)C(=O)N2CC[C@@H](C)C[C@@H]2C(=O)O)C1 (some centres unmarked) [argatroban]
amount of IL-6 production (human whole blood (HWB) [2]): did not affect | fibrin formation in the blood samples (fibrin formation): inhibited

O=C(O)c1cccc(C[C@@H]2CCCC=C2c2nc(-c3ccccc3)c(-c3ccccc3)o2)c1 [Compound B, 3-{[(1S)-2-(4,5-diphenyl-1,3-oxazol-2-yl)-2-cyclohexen-1-yl]methyl}benzoic acid]
IC50 (human PBMC; Homo sapiens, PBMC stimulated with 5 μg/ml ConA and 100 nM PGE2 for 24 hr, read-out: IC50 of inhibition of IL-6 production): 32 nM | PGE2-stimulated IL-6 production (PGE2-stimulated HWB): inhibited

CCCC(=O)Nc1ncnc2c1ncn2[C@@H]1O[C@@H]2COP(=O)(O)O[C@H]2[C@H]1OC(=O)CCC [dibutyryl-cAMP]
IL-6 production [3]: mimicked

CCCCC[C@H](O)/C=C/[C@H]1[C@H](O)CC(=O)[C@@H]1C/C=C\CCCC(=O)O [PGE2, Prostaglandin E2]
secretion of IL-6 (human PBMC; ConA unstimulated PBMC, 10-1000 nM PGE2): did not affect | IL-6 secretion further enhanced, compared with ConA stimulation without PGE2 (human PBMC; PBMC, 5 μg/ml ConA, 24 hr, […] PGE2 (so in the source)): 3.5 fold and 5.7 fold and 10.1 fold | IL-6 production ([4]; ConA-stimulated HWB, PGE2 10 to 1000 nM): enhanced | IL-6 production (human whole blood cells): enhanced IL-6 production to a great extent | IL-6 production [3]: enhanced

CCc1nc2cc(C(C)=O)ccc2n1-c1ccc(CCNC(=O)NS(=O)(=O)c2ccc(C)cc2)cc1 [Compound C, N-[({2-[4-(5-acetyl-2-ethyl-1H-benzimidazol-1-yl)phenyl]ethyl}amino)carbonyl]-4-methylbenzenesulfonamide]
mode of inhibition of IL-6 production ([4]; ConA and PGE2 co-stimulated HWB): competitively with PGE2 | inhibition of IL-6 production ([4]; ConA and PGE2 co-stimulated HWB, Compound C 16-50,000 nM): dose-dependent inhibition

CCCC1([C@H](O)C/C=C/[C@H]2[C@H](O)CC(=O)[C@@H]2CCCCCCC(=O)OC)CCC1 [Butaprost]
IL-6 production (human whole blood (HWB) [1]): enhanced
